Results from patent US5358951A, “Angiotensin II receptor blocking 2, 3, 6 substituted quinazolinones” (American Cyanamid Company, priority 1993, dated 1994).
Structures can show the parent of a compound that is named as a salt. Where two headings read alike, the source gives them in different places.

Biological target: T1, Angiotensin II Receptor (Bos taurus, UniProt P25104)
T1 construct: fresh adrenal glands received on crushed ice are cleaned of fatty tissues; from tissue; host or cells: beef adrenal cortex, microsomal membranes (100,000×g pellet)
T1 sequence (P25104 1-359): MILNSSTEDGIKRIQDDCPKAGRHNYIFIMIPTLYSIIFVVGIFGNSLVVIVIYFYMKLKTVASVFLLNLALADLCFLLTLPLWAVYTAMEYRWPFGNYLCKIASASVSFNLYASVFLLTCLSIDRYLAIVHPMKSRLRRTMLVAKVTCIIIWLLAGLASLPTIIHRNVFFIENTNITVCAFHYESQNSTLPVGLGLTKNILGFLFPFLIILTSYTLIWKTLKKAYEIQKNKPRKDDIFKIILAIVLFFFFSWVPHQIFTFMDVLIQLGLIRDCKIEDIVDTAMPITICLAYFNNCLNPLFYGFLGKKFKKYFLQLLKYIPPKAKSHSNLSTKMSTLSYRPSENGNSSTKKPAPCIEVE
Assay: Receptor Binding Assay: displacement of [^125 I](Sar^1,Ile^8)AngII
Format: beef (adrenal cortex microsomal membranes)
Excerpt: Beef adrenals are obtained from a local slaughter house (Maxwell-Cohen). [^125 […]. 2200 Ci/mmole, is purchased from Dupont (NEN®, Boston, Mass.). All unlabeled AngII analogs, Dimethylsulfoxide (DMSO), nucleotides, bovine serum albumin (BSA) are purchased from Sigma Chemical Co., St. Louis, Mo. U.S.A. […] Approximately sixteen (16) to twenty (20) beef adrenal glands are processed as follows: fresh adrenal glands received on crushed ice are cleaned of fatty tissues and the tough membranes encapsulating the glands are removed and discarded. The brownish tissue forming the adrenal cortex is scraped off and finely minced with scissors before homogenization. Care is taken to avoid contamination with medullary tissue during dissection. The scraped cortices are suspended in twenty volumes of an ice-cold buffer medium consisting of 10 mM Tris.HCl (pH 7.4 at 22° C.) and containing 1.0 mM EDTA and 0.2M sucrose. Unless otherwise indicated, all subsequent operations are done at 4° C. […] The homogenate is centrifuged first at low speed (3,000×g) for 10 min. […] This P2 pellet is discarded and the liquid phase is carefully decanted off in clean centrifuge tubes and recentrifuged at high speed (100,000×g) for 60 min. The translucent final pellet is harvested and combined in a small volume (20-50.0 ml) of 50.0 mM Tris.HCl buffer, pH 7.2. A 100 ul aliquot is withdrawn and the protein content of the preparation is determined by the Lowry's method (Lowry, O. H., Rosebrough, […]. and Randall, R. J., Protein measurement with Folin phenol reagent. J. Biol. Chem., 48, 265-275, 1951). The pelleted membrane is reconstituted in 50.0 mM Tris.HCl buffer containing 0.1 mM of phenylmethylsulfonyl fluoride (PMSF) to give approximately a protein concentration of 2.5 mg per ml of tissue suspension. […] In competition studies, experimental compounds are diluted in dimethylsulfoxide (DMSO) and added in 20 ul to wells before the introduction of tissue membranes. […] Assays are performed in triplicate. The wells are left undisturbed for 60 min. at room temperature. Following incubation, all wells are harvested at once with a Brandel® Harvester especially designed for a 96 well plate (Brandel® Biomedical Research & Development Labs. Inc., Gaithersburg, Md., U.S.A.). The filter discs are washed with 10×1.0 ml of cold 0.9% NaCl to remove unbound ligand. […] This method is routinely used. The filters are removed from the filter grid and counted in a Parkard® Cobra Gamma Counter for 1 min. (Packard Instrument Co., Downers Grove, Ill., U.S.A.). The binding data are analyzed by the non-linear interactive "LUNDON-1" program (LUNDON SOFTWARE Inc., Cleveland, Ohio U.S.A.).

[1] = continuation of Table I headed BIOLOGICAL DATA, read-out: Biological Data
[2] = read-out: Angiotensin II Receptor Binding IC50

Row | SMILES | IC50 [1] | IC50 [2]
1 | CCCCc1nc2ccc(C3(C(=O)OC)CC4CCCN4O3)cc2c(=O)n1Cc1ccc(-c2ccccc2-c2nnn[nH]2)cc1 (mixture of isomers) [Example 78, Trans(+/-)-Methyl-2-[2-butyl-3,4-dihydro-4-oxo-3-[[2'-(1H-tetrazol-5-yl)[1,1'-biphenyl]-4-yl]methyl-6-quinazolinyl]hexahydropyrrolo[1,2-b]isoxazole-2-carboxylate] | 0.144 µM | 
2 | CCCCc1nc2ccc([C@@H]3C[C@H]4c5ccccc5CCN4O3)cc2c(=O)n1Cc1ccc(-c2ccccc2-c2nnn[nH]2)cc1 (relative stereo) [Example 63, Cis-2-Butyl-6-(1,5,6,10b-tetrahydro-2H-isoxazolo[3,2-a]isoquinolin-2-yl)-3-[[2'-(1H-tetrazol5-yl)[1,1'-biphenyl]-4-yl]methyl]-4(3H)-quinazolinone] |  | 0.054 µM
3 | CCCCc1nc2ccc([C@@]3(CC)C[C@@H]4CCCN4O3)cc2c(=O)n1Cc1ccc(-c2ccccc2-c2nnn[nH]2)cc1 (relative stereo) [Example 71, Cis-2-butyl-6-(2-ethylhexahydropyrrolo[1,2b]isoxazol-2-yl)-3-[[2'-[1-(1H-tetrazol-5-yl)][1,1'-biphenyl]-4-yl]methyl]-4(3H)-quinazolinone] |  | 0.063 µM
4 | CCCCc1nc2ccc([C@@]3(C)C[C@@H]4CCCN4O3)cc2c(=O)n1Cc1ccc(-c2ccccc2-c2nnn[nH]2)cc1 (relative stereo) [Example 73, Cis-2-Butyl-6-(hexahydro-2-methylpyrrolo[1,2-b]isoxazol-2-yl)-3-[[2'-(1H-(tetrazol-5-yl)[1,1'-biphenyl-4-yl]methyl]-4(3H)-quinazolinone sodium salt] | 0.031 µM | 
5 | CCCCc1nc2ccc(C3(C)CC4c5ccccc5CCN4O3)cc2c(=O)n1Cc1ccc(-c2ccccc2-c2nnn[nH]2)cc1 (stereo not drawn) [Example 64, Cis and Trans-2-Butyl-6-(1,5,6,10b-tetrahydro-2-methyl-2H-isoxazolo[3,2-a]isoquinolin-2-yl)-3-[[2'-(1H-tetrazol-5-yl][1,1'-biphenyl]-4-yl]methyl]-4(3H)-quinazolinone] |  | 0.094 µM
